Results on 30 compounds are retold here after patent publication US7951829B2, “Benzimidazole modulators of VR1” (Janssen Pharmaceutica NV, priority 2006, dated 2011).

The structures appear in SMILES notation.

This assay has as its target T1, hVR1 (Homo sapiens, UniProt Q8NER1).
T1 construct: expressed in transfected cells; host or cells: HEK293
The experiment in a line: Human VR1 (hVR1) Functional Assay (FLIPR intracellular calcium, capsaicin challenge). In kind it is cell-based. The following applies: capsaicin 0.030 μM, HEK293 cells expressing hVR1; for inhibition at 1 µM: test concentration 1 μM.

T1 sequence (Q8NER1 whole entry): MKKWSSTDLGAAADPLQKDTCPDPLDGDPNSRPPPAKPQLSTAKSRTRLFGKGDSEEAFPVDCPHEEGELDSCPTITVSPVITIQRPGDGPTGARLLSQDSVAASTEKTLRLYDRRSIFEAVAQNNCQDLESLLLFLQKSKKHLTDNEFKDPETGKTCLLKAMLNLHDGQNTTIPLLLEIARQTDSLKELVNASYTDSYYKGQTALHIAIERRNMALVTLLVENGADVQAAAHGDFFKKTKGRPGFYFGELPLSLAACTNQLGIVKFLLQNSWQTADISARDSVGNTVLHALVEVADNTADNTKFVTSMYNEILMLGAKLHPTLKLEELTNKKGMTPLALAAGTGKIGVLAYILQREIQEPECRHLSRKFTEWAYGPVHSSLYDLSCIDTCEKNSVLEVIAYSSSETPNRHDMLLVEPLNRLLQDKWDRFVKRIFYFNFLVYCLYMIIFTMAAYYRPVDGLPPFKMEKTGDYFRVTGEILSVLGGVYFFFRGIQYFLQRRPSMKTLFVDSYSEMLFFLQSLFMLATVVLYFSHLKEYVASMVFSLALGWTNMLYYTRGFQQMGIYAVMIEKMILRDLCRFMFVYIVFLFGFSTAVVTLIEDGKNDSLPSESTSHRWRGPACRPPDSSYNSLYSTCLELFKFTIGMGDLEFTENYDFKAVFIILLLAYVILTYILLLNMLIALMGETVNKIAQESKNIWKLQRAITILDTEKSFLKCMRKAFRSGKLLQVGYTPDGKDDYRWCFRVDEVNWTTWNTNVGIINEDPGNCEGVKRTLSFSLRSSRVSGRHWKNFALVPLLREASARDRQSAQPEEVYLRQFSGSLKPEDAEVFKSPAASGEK

Take `CC(C)(C)NS(=O)(=O)c1ccccc1-c1ccc2[nH]c(/C=C/c3ccc(C(F)(F)F)cc3)nc2c1` [Cpd 309, (E)-N-tert-butyl-2-{2-[2-(4-trifluoromethyl-phenyl)-vinyl]-1H-benzimidazol-5-yl}-benzenesulfonamide]: the inhibition at 1 µM worked out at 73%.

Regarding `O=C(CO)c1ccccc1-c1ccc2[nH]c(/C=C/c3ccc(C(F)(F)F)cc3)nc2c1` [Cpd 311, (E)-2-hydroxy-1-(2-{2-[2-(4-trifluoromethyl-phenyl)-vinyl]-1H-benzimidazol-5-yl}-phenyl)-ethanone], the IC50 is 0.054 µM and the inhibition at 1 µM amounted to 99%.

Take `CNS(=O)(=O)c1ccccc1-c1ccc2[nH]c(/C=C/c3ccc(C)cc3)nc2c1` [Cpd 314, (E)-N-methyl-2-[2-(2-p-tolyl-vinyl)-1H-benzimidazol-5-yl]-benzenesulfonamide]: the 50% inhibitory concentration (IC50) was 0.018 µM and the inhibition at 1 µM was found to be 100%.

As to `CNS(=O)(=O)c1ccccc1-c1ccc2[nH]c(/C=C/c3ccc(F)cc3)nc2c1` [Cpd 315, (E)-2-{2-[2-(4-fluoro-phenyl)-vinyl]-1H-benzimidazol-5-yl}-N-methyl-benzenesulfonamide], the IC50 came to 0.011 µM and the inhibition at 1 µM was 100%.

Regarding `CNS(=O)(=O)c1ccccc1-c1ccc2[nH]c(/C=C/c3ccc(Cl)c(Cl)c3)nc2c1` [Cpd 316, (E)-2-{2-[2-(3,4-dichloro-phenyl)-vinyl]-1H-benzimidazol-5-yl}-N-methyl-benzenesulfonamide], the IC50 came out at 0.012 µM and the inhibition at 1 µM amounted to 101%.

`CNS(=O)(=O)c1ccccc1-c1ccc2[nH]c(/C=C/c3ccc(F)c(Br)c3)nc2c1` [Cpd 317, (E)-2-{2-[2-(3-bromo-4-fluoro-phenyl)-vinyl]-1H-benzimidazol-5-yl}-N-methyl-benzenesulfonamide]: the IC50 turned out to be 0.011 µM and the inhibition at 1 µM was determined as 101%.

Take `CNS(=O)(=O)c1ccccc1-c1ccc2[nH]c(/C=C/c3ccc(N(C)C)cc3)nc2c1` [Cpd 318, (E)-2-{2-[2-(4-dimethylamino-phenyl)-vinyl]-1H-benzimidazol-5-yl}-N-methyl-benzenesulfonamide]: the IC50 was 0.05 µM and the inhibition at 1 µM amounted to 100%.

Turning to `CNS(=O)(=O)c1ccccc1-c1ccc2[nH]c(/C=C/c3ccc(C(F)(F)F)cc3F)nc2c1` [Cpd 320, (E)-2-{2-[2-(2-fluoro-4-trifluoromethyl-phenyl)-vinyl]-1H-benzimidazol-5-yl}-N-methyl-benzenesulfonamide], the IC50 is 0.013 µM and the inhibition at 1 µM amounted to 100%.

Turning to `CNS(=O)(=O)c1ccccc1-c1ccc2[nH]c(/C=C/c3ccc(F)c(Cl)c3)nc2c1` [Cpd 321, (E)-2-{2-[2-(3-chloro-4-fluoro-phenyl)-vinyl]-1H-benzimidazol-5-yl}-N-methyl-benzenesulfonamide], the IC50 worked out at 0.018 µM and the inhibition at 1 µM turned out to be 100%.

Regarding `CNS(=O)(=O)c1ccccc1-c1ccc2[nH]c(/C=C/c3cc(F)cc(C(F)(F)F)c3)nc2c1` [Cpd 322, (E)-2-{2-[2-(3-fluoro-5-trifluoromethyl-phenyl)-vinyl]-1H-benzimidazol-5-yl}-N-methyl-benzenesulfonamide], the IC50 worked out at 0.014 µM and the inhibition at 1 µM is 101%.

`CNS(=O)(=O)c1ccccc1-c1ccc2[nH]c(/C=C/c3ccc(F)c(F)c3F)nc2c1` [Cpd 323, (E)-N-methyl-2-{2-[2-(2,3,4-trifluoro-phenyl)-vinyl]-1H-benzimidazol-5-yl}-benzenesulfonamide]: the IC50 was 0.04 µM and the inhibition at 1 µM came to 97%.

Regarding `CNS(=O)(=O)c1ccccc1-c1ccc2[nH]c(/C=C/c3cc(F)c(F)cc3F)nc2c1` [Cpd 324, (E)-N-methyl-2-{2-[2-(2,4,5-trifluoro-phenyl)-vinyl]-1H-benzimidazol-5-yl}-benzenesulfonamide], the IC50 was 0.033 µM and the inhibition at 1 µM was 98%.

Turning to `CNS(=O)(=O)c1ccccc1-c1ccc2[nH]c(/C=C/c3cccc(F)c3F)nc2c1` [Cpd 325, (E)-2-{2-[2-(2,3-difluoro-phenyl)-vinyl]-1H-benzimidazol-5-yl}-N-methyl-benzenesulfonamide], the inhibition at 1 µM amounted to 73%.

Regarding `CNS(=O)(=O)c1ccccc1-c1ccc2[nH]c(/C=C/c3cc(F)ccc3F)nc2c1` [Cpd 326, (E)-2-{2-[2-(2,5-difluoro-phenyl)-vinyl]-1H-benzimidazol-5-yl}-N-methyl-benzenesulfonamide], the concentration for half-maximal inhibition (IC50) worked out at 0.157 µM and the inhibition at 1 µM was 89%.

With `CNS(=O)(=O)c1ccccc1-c1ccc2[nH]c(/C=C/c3c(F)cccc3F)nc2c1` [Cpd 327, (E)-2-{2-[2-(2,6-difluoro-phenyl)-vinyl]-1H-benzimidazol-5-yl}-N-methyl-benzenesulfonamide], the IC50 was determined as 0.343 µM and the inhibition at 1 µM amounted to 77%.

Turning to `CNS(=O)(=O)c1ccccc1-c1ccc2[nH]c(/C=C/c3cc(F)cc(F)c3)nc2c1` [Cpd 328, (E)-2-{2-[2-(3,5-difluoro-phenyl)-vinyl]-1H-benzimidazol-5-yl}-N-methyl-benzenesulfonamide], the 50% inhibitory concentration (IC50) amounted to 0.035 µM and the inhibition at 1 µM is 99%.

Turning to `CNS(=O)(=O)c1ccccc1-c1ccc2[nH]c(/C=C/c3ccc(F)c(F)c3)nc2c1` [Cpd 329, (E)-2-{2-[2-(3,4-difluoro-phenyl)-vinyl]-1H-benzimidazol-5-yl}-N-methyl-benzenesulfonamide], the IC50 was 0.027 µM and the inhibition at 1 µM is 98%.

With `CNS(=O)(=O)c1ccccc1-c1ccc2[nH]c(/C=C/c3ccc(F)cc3C(F)(F)F)nc2c1` [Cpd 330, (E)-2-{2-[2-(4-fluoro-2-trifluoromethyl-phenyl)-vinyl]-1H-benzimidazol-5-yl}-N-methyl-benzenesulfonamide], the IC50 came out at 0.131 µM and the inhibition at 1 µM was 85%.

As to `CNS(=O)(=O)c1ccccc1-c1ccc2[nH]c(/C=C/c3ccc(F)c(C(F)(F)F)c3)nc2c1` [Cpd 331, (E)-2-{2-[2-(4-fluoro-3-trifluoromethyl-phenyl)-vinyl]-1H-benzimidazol-5-yl}-N-methyl-benzenesulfonamide], the IC50 was found to be 0.043 µM and the inhibition at 1 µM is 97%.

In the case of `CNS(=O)(=O)c1ccccc1-c1ccc2[nH]c(/C=C/c3cccc(C(F)(F)F)c3F)nc2c1` [Cpd 332, (E)-2-{2-[2-(2-fluoro-3-trifluoromethyl-phenyl)-vinyl]-1H-benzimidazol-5-yl}-N-methyl-benzenesulfonamide], the IC50 worked out at 0.049 µM and the inhibition at 1 µM is 98%.

Consider `CNS(=O)(=O)c1ccccc1-c1ccc2[nH]c(/C=C/c3cc(C(F)(F)F)cc(C(F)(F)F)c3)nc2c1` [Cpd 333, (E)-2-{2-[2-(3,5-bis-trifluoromethyl-phenyl)-vinyl]-1H-benzimidazol-5-yl}-N-methyl-benzenesulfonamide], for which the IC50 amounted to 0.027 µM and the inhibition at 1 µM was determined as 98%.

`CNS(=O)(=O)c1ccccc1-c1ccc2[nH]c(/C=C/c3cc(C(F)(F)F)ccc3C(F)(F)F)nc2c1` [Cpd 334, (E)-2-{2-[2-(2,5-bis-trifluoromethyl-phenyl)-vinyl]-1H-benzimidazol-5-yl}-N-methyl-benzenesulfonamide]: the IC50 came to 0.178 µM and the inhibition at 1 µM worked out at 94%.

Consider `CNS(=O)(=O)c1ccccc1-c1ccc2[nH]c(/C=C/c3cccc(Cl)c3F)nc2c1` [Cpd 335, (E)-2-{2-[2-(3-chloro-2-fluoro-phenyl)-vinyl]-1H-benzimidazol-5-yl}-N-methyl-benzenesulfonamide], for which the IC50 was 0.047 µM and the inhibition at 1 µM is 100%.

Turning to `CNS(=O)(=O)c1ccccc1-c1ccc2[nH]c(/C=C/c3c(F)cccc3Cl)nc2c1` [Cpd 336, (E)-2-{2-[2-(2-chloro-6-fluoro-phenyl)-vinyl]-1H-benzimidazol-5-yl}-N-methyl-benzenesulfonamide], the IC50 turned out to be 0.24 µM and the inhibition at 1 µM was found to be 89%.

`CNS(=O)(=O)c1ccccc1-c1ccc2[nH]c(/C=C/c3ccc(Cl)cc3Cl)nc2c1` [Cpd 337, (E)-2-{2-[2-(2,4-dichloro-phenyl)-vinyl]-1H-benzimidazol-5-yl}-N-methyl-benzenesulfonamide]: the half-inhibitory concentration (IC50) was 0.014 µM and the inhibition at 1 µM worked out at 96%.

As to `CNS(=O)(=O)c1ccccc1-c1ccc2[nH]c(/C=C/c3cccc(Br)c3)nc2c1` [Cpd 338, (E)-2-{2-[2-(3-bromo-phenyl)-vinyl]-1H-benzimidazol-5-yl}-N-methyl-benzenesulfonamide], the IC50 turned out to be 0.104 µM and the inhibition at 1 µM was found to be 96%.

Turning to `CNS(=O)(=O)c1ccccc1-c1ccc2[nH]c(/C=C/c3ccc(Cl)cc3F)nc2c1` [Cpd 339, (E)-2-{2-[2-(4-chloro-2-fluoro-phenyl)-vinyl]-1H-benzimidazol-5-yl}-N-methyl-benzenesulfonamide], the IC50 was 0.027 µM and the inhibition at 1 µM came to 99%.

Take `CNS(=O)(=O)c1ccccc1-c1ccc2[nH]c(/C=C/c3ccc(Cl)cc3S(C)(=O)=O)nc2c1` [Cpd 340, (E)-2-{2-[2-(4-chloro-2-methanesulfonyl-phenyl)-vinyl]-1H-benzimidazol-5-yl}-N-methyl-benzenesulfonamide]: the IC50 stood at 0.062 µM and the inhibition at 1 µM was found to be 98%.

With `CNS(=O)(=O)c1ccccc1-c1ccc2[nH]c(/C=C/c3ccc(SC(F)(F)F)cc3)nc2c1` [Cpd 341, (E)-N-methyl-2-{2-[2-(4-trifluoromethylsulfanyl-phenyl)-vinyl]-1H-benzimidazol-5-yl}-benzenesulfonamide], the IC50 worked out at 0.006 µM and the inhibition at 1 µM was 99%.

Consider `CNS(=O)(=O)c1ccccc1-c1ccc2[nH]c(/C=C/c3ccc(S(=O)(=O)C(F)(F)F)cc3)nc2c1` [Cpd 342, (E)-N-methyl-2-{2-[2-(4-trifluoromethanesulfonyl-phenyl)-vinyl]-1H-benzimidazol-5-yl}-benzenesulfonamide], for which the half-inhibitory concentration (IC50) was determined as 0.024 µM and the inhibition at 1 µM was found to be 98%.
